Measurements from the supplement of paper PMC10733146.

How the values were obtained:
Assay in all cases: viability relative to DMSO control (fraction); higher = less drug effect (more viable cells)
Details in all cases: 48 h
[1] = tested on: primary AML patient cells (S056)
Outline: (§1)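 Using 384-well plates with compounds already plated at five concentrations, one well per concentration, 4 × 10^4 primary mononuclear tumour cells were added per well. Cells were Ficoll-isolated from blood or bone marrow or came from processed lymph node, fresh or cryopreserved. They were kept for 48 h at 37 °C and 5% CO2 in RPMI-1640 supplemented with penicillin/streptomycin, L-glutamine and human serum, and viability was read as CellTiter-Glo luminescence relative to the median of 16 inner DMSO wells.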

[2] = tested on: primary AML patient cells (S085)
Outline: as §1

[3] = tested on: primary FL patient cells (S087)
Outline: as §1

[4] = tested on: primary CLL patient cells (S031)
Outline: as §1

[5] = tested on: primary T-NHL patient cells (S058)
Outline: as §1

[6] = tested on: primary AML patient cells (S019)
Outline: as §1

[7] = tested on: primary MCL patient cells (S041)
Outline: as §1

[8] = tested on: primary AML patient cells (S012)
Outline: as §1

[9] = tested on: primary AML patient cells (S006)
Outline: as §1

[10] = tested on: primary FL patient cells (S022)
Outline: as §1

[11] = tested on: primary DLBCL patient cells (S049)
Outline: as §1

[12] = tested on: primary MCL patient cells (S063)
Outline: as §1

[13] = tested on: primary ALL patient cells (S048)
Outline: as §1

[14] = tested on: primary AML patient cells (S011)
Outline: as §1

[15] = tested on: primary DLBCL patient cells (S076)
Outline: as §1

[16] = tested on: primary ALL patient cells (S088)
Outline: as §1

[17] = tested on: primary AML patient cells (S079)
Outline: as §1

With `COc1cccc2c1C(=O)c1c(O)c3c(c(O)c1C2=O)C[C@@](O)(C(=O)CO)C[C@@H]3O[C@H]1C[C@H](N)[C@H](O)[C@H](C)O1` [Doxorubicin] the viability ([1]; 0.0016 µM) was 1.02, the viability ([1]; 0.008 µM) was 0.889 and the viability ([1]; 0.04 µM) was 0.812. It also gave a viability ([1]; 0.2 µM) of 0.584, a viability ([1]; 1 µM) of 0.0807 and a viability ([2]; 0.0016 µM) of 0.94. For the same molecule, the viability ([2]; 0.008 µM) was 1.09, the viability ([2]; 0.04 µM) was 0.834 and the viability ([2]; 0.2 µM) was 0.278. It also gave a viability ([2]; 1 µM) of 0.0284, a viability ([3]; 0.0016 µM) of 1.04 and a viability ([3]; 0.008 µM) of 1.03. For the same molecule, the viability ([3]; 0.04 µM) was 0.98, the viability ([3]; 0.2 µM) was 0.776 and the viability ([3]; 1 µM) was 0.584. For the same molecule, the viability ([4]; 0.0016 µM) was 1.14, the viability ([4]; 0.008 µM) was 1.02 and the viability ([4]; 0.04 µM) was 0.534. It also gave a viability ([4]; 0.2 µM) of 0.0601, a viability ([4]; 1 µM) of 0.0158 and a viability ([5]; 0.0016 µM) of 1.03. For the same molecule, the viability ([5]; 0.008 µM) was 0.96, the viability ([5]; 0.04 µM) was 0.823 and the viability ([5]; 0.2 µM) was 0.525. The viability ([5]; 1 µM) was 0.145, the viability ([6]; 0.0016 µM) was 1.02 and the viability ([6]; 0.008 µM) was 1.06. The viability ([6]; 0.04 µM) was 0.828, the viability ([6]; 0.2 µM) was 0.481 and the viability ([6]; 1 µM) was 0.219. For the same molecule, the viability ([7]; 0.0016 µM) was 0.994, the viability ([7]; 0.008 µM) was 1 and the viability ([7]; 0.04 µM) was 0.942. For the same molecule, the viability ([7]; 0.2 µM) was 0.488, the viability ([7]; 1 µM) was 0.0259 and the viability ([8]; 0.0016 µM) was 1.04. For the same molecule, the viability ([8]; 0.008 µM) was 1.04, the viability ([8]; 0.04 µM) was 0.88 and the viability ([8]; 0.2 µM) was 0.896. The viability ([8]; 1 µM) was 0.0673, the viability ([9]; 0.0016 µM) was 1.02 and the viability ([9]; 0.008 µM) was 1.05. The viability ([9]; 0.04 µM) was 0.788, the viability ([9]; 0.2 µM) was 0.32 and the viability ([9]; 1 µM) was 0.0625. It also gave a viability ([10]; 0.0016 µM) of 1.12, a viability ([10]; 0.008 µM) of 1.17 and a viability ([10]; 0.04 µM) of 0.892. The viability ([10]; 0.2 µM) was 0.281, the viability ([10]; 1 µM) was 0.183 and the viability ([11]; 0.0016 µM) was 1.14. The viability ([11]; 0.008 µM) was 1, the viability ([11]; 0.04 µM) was 0.827 and the viability ([11]; 0.2 µM) was 0.3. It also gave a viability ([11]; 1 µM) of 0.0345, a viability ([12]; 0.0016 µM) of 1.01 and a viability ([12]; 0.008 µM) of 0.98. For the same molecule, the viability ([12]; 0.04 µM) was 0.997, the viability ([12]; 0.2 µM) was 0.735 and the viability ([12]; 1 µM) was 0.0566. It also gave a viability ([13]; 0.0016 µM) of 1.06, a viability ([13]; 0.008 µM) of 1.01 and a viability ([13]; 0.04 µM) of 0.418. It also gave a viability ([13]; 0.2 µM) of 0.0592, a viability ([13]; 1 µM) of 0.0152 and a viability ([14]; 0.0016 µM) of 1.05. It also gave a viability ([14]; 0.008 µM) of 1.04, a viability ([14]; 0.04 µM) of 0.973 and a viability ([14]; 0.2 µM) of 0.507. For the same molecule, the viability ([14]; 1 µM) was 0.0215, the viability ([15]; 0.0016 µM) was 1.05 and the viability ([15]; 0.008 µM) was 1.1. For the same molecule, the viability ([15]; 0.04 µM) was 0.822, the viability ([15]; 0.2 µM) was 0.453 and the viability ([15]; 1 µM) was 0.034. The viability ([16]; 0.0016 µM) was 1.05, the viability ([16]; 0.008 µM) was 1.02 and the viability ([16]; 0.04 µM) was 0.828. The viability ([16]; 0.2 µM) was 0.221, the viability ([16]; 1 µM) was 0.0329 and the viability ([17]; 0.0016 µM) was 1.05. For the same molecule, the viability ([17]; 0.008 µM) was 1.1, the viability ([17]; 0.04 µM) was 1.03 and the viability ([17]; 0.2 µM) was 0.769. The viability ([17]; 1 µM) was 0.244.
